According to PMC6591251, “Discovery of potent necroptosis inhibitors targeting RIPK1 kinase activity for the treatment of inflammatory disorder and cancer metastasis” (Cell Death & Disease, 2019):

Columns and labels:
Test in all cases: RBC kinase panel
Format in all cases: biochemical
BRSK1 = biological target: T1, BRSK1 (Homo sapiens, UniProt Q8TDC3); conditions: ATP 10 μM, Data1, Data2
T1 construct: purchased Reaction Biology Corporation
Experimental: (§1) PK68 was tested at 1 μM in duplicate against a panel of 369 human kinases at Reaction Biology Corporation. Results are viewed in the human kinome phylogenetic tree.
(§2) ^a Compound PK68 was tested at 1 μM in duplicate against 369 kinases using the RBC kinase panel service of Reaction Biology Corporation. All the ATP concentrations used were 10 μM. […] Full protocol details are available at http://www.reactionbiology.com.

TLK2 = biological target: T2, TLK2 (Homo sapiens, UniProt Q86UE8); conditions: ATP 10 μM, Data1, Data2
T2 construct: purchased Reaction Biology Corporation
T2 sequence (Q86UE8 whole entry): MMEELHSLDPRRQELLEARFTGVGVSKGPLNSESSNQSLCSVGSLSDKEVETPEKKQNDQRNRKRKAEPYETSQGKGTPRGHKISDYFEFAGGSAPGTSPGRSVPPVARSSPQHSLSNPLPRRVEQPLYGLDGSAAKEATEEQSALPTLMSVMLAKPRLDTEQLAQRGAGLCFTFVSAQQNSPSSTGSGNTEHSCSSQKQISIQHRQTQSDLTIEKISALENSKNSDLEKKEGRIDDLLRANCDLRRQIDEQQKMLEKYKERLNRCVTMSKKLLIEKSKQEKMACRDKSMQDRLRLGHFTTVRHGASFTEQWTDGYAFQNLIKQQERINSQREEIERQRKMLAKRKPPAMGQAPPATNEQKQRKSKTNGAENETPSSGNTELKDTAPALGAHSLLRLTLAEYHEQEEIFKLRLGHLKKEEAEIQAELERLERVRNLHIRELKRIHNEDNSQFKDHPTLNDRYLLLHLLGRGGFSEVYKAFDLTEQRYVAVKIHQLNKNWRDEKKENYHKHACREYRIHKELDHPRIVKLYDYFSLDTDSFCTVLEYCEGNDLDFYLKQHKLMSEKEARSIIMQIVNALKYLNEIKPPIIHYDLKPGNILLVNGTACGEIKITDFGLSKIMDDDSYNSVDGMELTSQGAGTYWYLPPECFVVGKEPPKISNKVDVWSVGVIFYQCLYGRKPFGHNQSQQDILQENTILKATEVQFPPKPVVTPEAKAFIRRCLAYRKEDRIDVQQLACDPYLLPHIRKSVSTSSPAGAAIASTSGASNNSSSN
Experimental: as §1, §2

LIMK2 = biological target: T3, LIMK2 (Homo sapiens, UniProt P53671)
T3 construct: purchased Reaction Biology Corporation
T3 sequence (P53671 whole entry): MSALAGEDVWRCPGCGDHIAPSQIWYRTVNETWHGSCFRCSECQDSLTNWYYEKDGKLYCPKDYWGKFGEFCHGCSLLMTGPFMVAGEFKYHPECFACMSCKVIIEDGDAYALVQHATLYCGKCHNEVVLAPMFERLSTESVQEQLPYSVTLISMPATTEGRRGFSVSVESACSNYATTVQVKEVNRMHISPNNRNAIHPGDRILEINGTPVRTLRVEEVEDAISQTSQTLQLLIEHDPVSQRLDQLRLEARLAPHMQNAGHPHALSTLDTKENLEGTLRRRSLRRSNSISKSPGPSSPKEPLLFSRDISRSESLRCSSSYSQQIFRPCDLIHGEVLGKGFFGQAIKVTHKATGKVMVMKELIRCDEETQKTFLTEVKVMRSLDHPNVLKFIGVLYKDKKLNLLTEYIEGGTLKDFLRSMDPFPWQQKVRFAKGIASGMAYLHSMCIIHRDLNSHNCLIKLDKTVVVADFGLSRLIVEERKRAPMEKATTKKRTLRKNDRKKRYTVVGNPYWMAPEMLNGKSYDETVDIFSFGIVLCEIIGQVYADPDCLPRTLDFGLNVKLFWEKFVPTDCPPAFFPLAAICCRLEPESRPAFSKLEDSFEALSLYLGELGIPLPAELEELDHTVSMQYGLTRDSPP
Experimental: as §1, §2

GCK/MAP4K2 = biological target: T4, GCK/MAP4K2 (Homo sapiens, UniProt Q12851); conditions: ATP 10 μM, Data1, Data2
T4 construct: purchased Reaction Biology Corporation
Experimental: as §1, §2

NEK1 = biological target: T5, NEK1 (Homo sapiens, UniProt Q96PY6); conditions: ATP 10 μM, Data1, Data2
T5 construct: purchased Reaction Biology Corporation
Experimental: as §1, §2

SNRK = biological target: T6, SNRK (Homo sapiens, UniProt Q9NRH2); conditions: ATP 10 μM, Data1, Data2
T6 construct: purchased Reaction Biology Corporation
Experimental: as §1, §2

MEK2 = biological target: T7, MEK2 (Homo sapiens, UniProt P36507); conditions: ATP 10 μM, Data1, Data2
T7 construct: purchased Reaction Biology Corporation
Experimental: as §1, §2

P38d/MAPK13 = biological target: T8, P38d/MAPK13 (Homo sapiens, UniProt O15264); conditions: ATP 10 μM, Data1, Data2
T8 construct: purchased Reaction Biology Corporation
Experimental: as §1, §2

TEC = biological target: T9, TEC (Homo sapiens, UniProt P42680); conditions: ATP 10 μM, Data1, Data2
T9 construct: purchased Reaction Biology Corporation
Experimental: as §1, §2

SRPK1 = biological target: T10, SRPK1 (Homo sapiens, UniProt Q96SB4); conditions: ATP 10 μM, Data1, Data2
T10 construct: purchased Reaction Biology Corporation
Experimental: as §1, §2

TXK = biological target: T11, TXK (Homo sapiens, UniProt P42681); conditions: ATP 10 μM, Data1, Data2
T11 construct: purchased Reaction Biology Corporation
Experimental: as §1, §2

TLK1 = biological target: T12, TLK1 (Homo sapiens, UniProt Q9UKI8); conditions: ATP 10 μM, Data1, Data2
T12 construct: purchased Reaction Biology Corporation
Experimental: as §1, §2

MST1/STK4 = biological target: T13, MST1/STK4 (Homo sapiens, UniProt Q13043); conditions: ATP 10 μM, Data1, Data2
T13 construct: purchased Reaction Biology Corporation
Experimental: as §1, §2

PKCmu/PRKD1 = biological target: T14, PKCmu/PRKD1 (Homo sapiens, UniProt Q15139); conditions: ATP 10 μM, Data1, Data2
T14 construct: purchased Reaction Biology Corporation
Experimental: as §1, §2

TBK1 = biological target: T15, TBK1 (Homo sapiens, UniProt Q9UHD2); conditions: ATP 10 μM, Data1, Data2
T15 construct: purchased Reaction Biology Corporation
Experimental: as §1, §2

TRKB = biological target: T16, TRKB (Homo sapiens, UniProt Q16620)
T16 construct: purchased Reaction Biology Corporation
T16 sequence (Q16620 32-822): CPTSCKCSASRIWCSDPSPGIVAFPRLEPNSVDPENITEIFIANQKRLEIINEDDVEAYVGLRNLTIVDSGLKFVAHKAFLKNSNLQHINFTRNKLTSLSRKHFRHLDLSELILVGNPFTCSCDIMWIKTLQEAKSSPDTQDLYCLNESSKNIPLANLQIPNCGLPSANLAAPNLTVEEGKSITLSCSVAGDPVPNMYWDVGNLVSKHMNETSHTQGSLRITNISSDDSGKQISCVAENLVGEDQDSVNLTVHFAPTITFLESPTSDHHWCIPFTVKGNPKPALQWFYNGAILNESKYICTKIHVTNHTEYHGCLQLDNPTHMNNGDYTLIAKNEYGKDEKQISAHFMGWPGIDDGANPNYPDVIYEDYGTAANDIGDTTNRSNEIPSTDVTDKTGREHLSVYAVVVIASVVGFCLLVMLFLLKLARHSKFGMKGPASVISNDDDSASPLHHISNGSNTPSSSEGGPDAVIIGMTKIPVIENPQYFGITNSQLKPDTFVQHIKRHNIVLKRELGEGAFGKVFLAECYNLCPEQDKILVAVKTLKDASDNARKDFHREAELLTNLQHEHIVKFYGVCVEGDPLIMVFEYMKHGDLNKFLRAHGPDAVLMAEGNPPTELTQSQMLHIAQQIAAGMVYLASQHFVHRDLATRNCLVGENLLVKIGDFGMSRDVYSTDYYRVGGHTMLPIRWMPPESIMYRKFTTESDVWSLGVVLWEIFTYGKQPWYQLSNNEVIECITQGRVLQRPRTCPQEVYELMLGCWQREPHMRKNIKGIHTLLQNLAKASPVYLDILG
Experimental: as §1, §2

IRR/INSRR = biological target: T17, IRR/INSRR (Homo sapiens, UniProt P14616); conditions: ATP 10 μM, Data1, Data2
T17 construct: purchased Reaction Biology Corporation
Experimental: as §1, §2

JAK1 = biological target: T18, JAK1 (Homo sapiens, UniProt P23458); conditions: ATP 10 μM, Data1, Data2
T18 construct: purchased Reaction Biology Corporation
Experimental: as §1, §2

FLT3 = biological target: T19, FLT3 (Homo sapiens, UniProt P36888); conditions: ATP 10 μM, Data1, Data2
T19 construct: purchased Reaction Biology Corporation
Experimental: as §1, §2

MUSK = biological target: T20, MUSK (Homo sapiens, UniProt O15146); conditions: ATP 10 μM, Data1, Data2
T20 construct: purchased Reaction Biology Corporation
T20 sequence (O15146 24-869): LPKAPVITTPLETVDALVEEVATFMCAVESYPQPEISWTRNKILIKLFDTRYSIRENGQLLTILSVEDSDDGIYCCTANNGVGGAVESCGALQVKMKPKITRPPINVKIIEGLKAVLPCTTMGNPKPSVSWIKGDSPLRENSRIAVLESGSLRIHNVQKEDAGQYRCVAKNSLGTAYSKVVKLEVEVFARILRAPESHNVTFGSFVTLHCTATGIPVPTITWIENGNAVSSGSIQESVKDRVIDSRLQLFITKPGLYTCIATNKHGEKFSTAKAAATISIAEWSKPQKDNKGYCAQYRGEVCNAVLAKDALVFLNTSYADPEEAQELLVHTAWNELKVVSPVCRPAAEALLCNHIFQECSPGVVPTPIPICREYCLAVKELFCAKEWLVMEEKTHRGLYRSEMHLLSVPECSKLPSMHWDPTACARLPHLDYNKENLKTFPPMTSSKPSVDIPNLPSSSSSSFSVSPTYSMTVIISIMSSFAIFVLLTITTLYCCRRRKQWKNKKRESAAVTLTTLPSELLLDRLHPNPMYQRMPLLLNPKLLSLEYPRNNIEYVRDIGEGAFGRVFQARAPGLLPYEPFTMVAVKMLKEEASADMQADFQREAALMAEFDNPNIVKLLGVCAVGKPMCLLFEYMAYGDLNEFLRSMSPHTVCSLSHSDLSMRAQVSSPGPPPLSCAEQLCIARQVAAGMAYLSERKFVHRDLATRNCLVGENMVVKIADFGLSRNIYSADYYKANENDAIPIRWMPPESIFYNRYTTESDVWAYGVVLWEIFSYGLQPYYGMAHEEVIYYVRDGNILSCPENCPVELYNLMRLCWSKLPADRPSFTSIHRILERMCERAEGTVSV
Experimental: as §1, §2

EPHB1 = biological target: T21, EPHB1 (Homo sapiens, UniProt P54762); conditions: ATP 10 μM, Data1, Data2
T21 construct: purchased Reaction Biology Corporation
Experimental: as §1, §2

CAMK1a = biological target: T22, CAMK1a (Homo sapiens, UniProt Q14012); conditions: ATP 10 μM, Data1, Data2
T22 construct: purchased Reaction Biology Corporation
T22 sequence (Q14012 whole entry): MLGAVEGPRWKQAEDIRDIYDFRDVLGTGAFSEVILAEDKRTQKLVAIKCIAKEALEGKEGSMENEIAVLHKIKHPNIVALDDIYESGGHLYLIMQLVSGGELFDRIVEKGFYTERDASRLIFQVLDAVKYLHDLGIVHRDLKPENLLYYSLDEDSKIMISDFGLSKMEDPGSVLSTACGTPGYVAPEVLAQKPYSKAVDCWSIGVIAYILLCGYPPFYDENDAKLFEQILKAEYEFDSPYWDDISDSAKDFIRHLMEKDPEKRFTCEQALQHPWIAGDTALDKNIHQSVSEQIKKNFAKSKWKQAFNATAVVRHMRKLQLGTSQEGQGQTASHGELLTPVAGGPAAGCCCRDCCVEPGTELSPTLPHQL
Experimental: as §1, §2

CDK6/cyclin D3 = biological target: T23, CDK6/cyclin D3 (Homo sapiens, UniProt Q00534); conditions: ATP 10 μM, Data1, Data2
T23 construct: purchased Reaction Biology Corporation
Experimental: as §1, §2

PAK2 = biological target: T24, PAK2 (Homo sapiens, UniProt Q13177); conditions: ATP 10 μM, Data1, Data2
T24 construct: purchased Reaction Biology Corporation
Experimental: as §1, §2

GSK3a = biological target: T25, GSK3a (Homo sapiens, UniProt P49840); conditions: ATP 10 μM, Data1, Data2
T25 construct: purchased Reaction Biology Corporation
Experimental: as §1, §2

TNK1 = biological target: T26, TNK1 (Homo sapiens, UniProt Q13470); conditions: ATP 10 μM, Data1, Data2
T26 construct: purchased Reaction Biology Corporation
T26 sequence (Q13470 whole entry): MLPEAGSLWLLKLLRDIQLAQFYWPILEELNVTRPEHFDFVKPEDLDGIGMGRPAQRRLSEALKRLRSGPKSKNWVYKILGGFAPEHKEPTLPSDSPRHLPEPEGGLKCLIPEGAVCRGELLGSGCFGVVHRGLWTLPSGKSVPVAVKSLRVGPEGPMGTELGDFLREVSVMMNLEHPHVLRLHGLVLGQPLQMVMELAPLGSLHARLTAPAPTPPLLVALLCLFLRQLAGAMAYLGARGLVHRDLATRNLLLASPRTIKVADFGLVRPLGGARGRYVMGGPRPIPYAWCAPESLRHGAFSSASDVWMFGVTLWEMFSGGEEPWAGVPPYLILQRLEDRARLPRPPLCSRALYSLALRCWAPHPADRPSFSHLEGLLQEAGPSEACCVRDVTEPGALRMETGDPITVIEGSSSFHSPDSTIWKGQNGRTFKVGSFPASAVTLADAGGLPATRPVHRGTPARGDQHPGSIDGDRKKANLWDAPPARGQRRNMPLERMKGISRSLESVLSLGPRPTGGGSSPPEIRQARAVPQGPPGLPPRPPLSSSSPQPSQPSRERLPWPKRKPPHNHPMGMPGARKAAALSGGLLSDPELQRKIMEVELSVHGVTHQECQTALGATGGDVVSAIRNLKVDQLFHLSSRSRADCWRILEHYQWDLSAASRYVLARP
Experimental: as §1, §2

DDR1 = biological target: T27, DDR1 (Homo sapiens, UniProt Q08345); conditions: ATP 10 μM, Data1, Data2
T27 construct: purchased Reaction Biology Corporation
Experimental: as §1, §2

ALK1/ACVRL1 = biological target: T28, ALK1/ACVRL1 (Homo sapiens, UniProt P37023); conditions: ATP 10 μM, Data1, Data2
T28 construct: purchased Reaction Biology Corporation
Experimental: as §1, §2

JNK2 = biological target: T29, JNK2 (Homo sapiens, UniProt P45984); conditions: ATP 10 μM, Data1, Data2
T29 construct: purchased Reaction Biology Corporation
Experimental: as §1, §2

MAPKAPK5/PRAK = biological target: T30, MAPKAPK5/PRAK (Homo sapiens, UniProt Q8IW41); conditions: ATP 10 μM, Data1, Data2
T30 construct: purchased Reaction Biology Corporation
T30 sequence (Q8IW41 whole entry): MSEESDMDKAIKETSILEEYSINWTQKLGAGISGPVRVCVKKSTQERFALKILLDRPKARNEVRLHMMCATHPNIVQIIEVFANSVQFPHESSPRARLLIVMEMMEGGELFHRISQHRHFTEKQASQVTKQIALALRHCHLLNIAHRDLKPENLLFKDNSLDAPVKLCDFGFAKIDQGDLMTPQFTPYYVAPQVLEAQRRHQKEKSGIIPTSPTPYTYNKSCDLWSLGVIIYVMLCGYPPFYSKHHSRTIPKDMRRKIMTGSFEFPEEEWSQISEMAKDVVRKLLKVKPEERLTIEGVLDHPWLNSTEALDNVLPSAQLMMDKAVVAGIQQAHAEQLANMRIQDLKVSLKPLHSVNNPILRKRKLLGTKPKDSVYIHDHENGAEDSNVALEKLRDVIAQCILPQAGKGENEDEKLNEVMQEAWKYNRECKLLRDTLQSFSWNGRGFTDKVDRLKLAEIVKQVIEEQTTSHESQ
Experimental: as §1, §2

AKT3 = biological target: T31, AKT3 (Homo sapiens, UniProt Q9Y243); conditions: ATP 10 μM, Data1, Data2
T31 construct: purchased Reaction Biology Corporation
T31 sequence (Q9Y243 whole entry): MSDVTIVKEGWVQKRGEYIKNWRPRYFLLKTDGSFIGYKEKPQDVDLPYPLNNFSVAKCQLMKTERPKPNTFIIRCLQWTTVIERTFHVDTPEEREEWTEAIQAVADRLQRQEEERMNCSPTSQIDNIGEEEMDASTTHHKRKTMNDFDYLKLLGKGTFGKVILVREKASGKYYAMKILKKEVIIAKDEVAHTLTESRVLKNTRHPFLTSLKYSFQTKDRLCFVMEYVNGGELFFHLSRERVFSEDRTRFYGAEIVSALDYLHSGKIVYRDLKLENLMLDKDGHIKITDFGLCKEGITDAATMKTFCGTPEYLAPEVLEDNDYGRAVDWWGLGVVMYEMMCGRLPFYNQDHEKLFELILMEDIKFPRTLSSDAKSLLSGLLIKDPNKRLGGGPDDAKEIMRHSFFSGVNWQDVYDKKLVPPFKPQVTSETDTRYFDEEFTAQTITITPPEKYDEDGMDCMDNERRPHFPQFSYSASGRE
Experimental: as §1, §2

CSK = biological target: T32, CSK (Homo sapiens, UniProt P41240); conditions: ATP 10 μM, Data1, Data2
T32 construct: purchased Reaction Biology Corporation
Experimental: as §1, §2

MLK1/MAP3K9 = biological target: T33, MLK1/MAP3K9 (Homo sapiens, UniProt P80192); conditions: ATP 10 μM, Data1, Data2
T33 construct: purchased Reaction Biology Corporation
Experimental: as §1, §2

`CC(=O)Nc1nc2ccc(-c3cnc(C)c(NC(=O)OC4CCCCC4)c3)cc2s1` [PK68, cyclohexyl (5-(2-acetamidobenzo[d]thiazol-6-yl)-2-methylpyridin-3-yl)carbamate] showed an Activity% (BRSK1; 1 μM) of 101.25%, an activity at 1 µM (BRSK1) of 102% and an Activity% (TLK2; 1 μM) of 96.86%. It also gave an activity at 1 µM (TLK2) of 98.1%, an Activity% (LIMK2; 1 μM, ATP 10 μM, Data1, Data2) of 42.64% and an activity at 1 µM (LIMK2; 1 μM, ATP 10 μM, Data1, Data2) of 44%. It also gave an inhibition at 1 µM (LIMK2; at 1000 nM) of over 50%, an Activity% (GCK/MAP4K2; 1 μM) of 96.82% and an activity at 1 µM (GCK/MAP4K2) of 97.6%. For the same molecule, the Activity% (NEK1; 1 μM) was 95.75%, the activity at 1 µM (NEK1) was 96% and the Activity% (SNRK; 1 μM) was 90.23%. It also gave an activity at 1 µM (SNRK) of 94.9%, an Activity% (MEK2; 1 μM) of 97.14% and an activity at 1 µM (MEK2) of 97.2%. The Activity% (P38d/MAPK13; 1 μM) was 95.45%, the activity at 1 µM (P38d/MAPK13) was 95.8% and the Activity% (TEC; 1 μM) was 97.93%. The activity at 1 µM (TEC) was 99%, the Activity% (SRPK1; 1 μM) was 99.67% and the activity at 1 µM (SRPK1) was 100%. For the same molecule, the Activity% (TXK; 1 μM) was 99.58%, the activity at 1 µM (TXK) was 101% and the Activity% (TLK1; 1 μM) was 97.39%. For the same molecule, the activity at 1 µM (TLK1) was 99.2%, the Activity% (MST1/STK4; 1 μM) was 100.43% and the activity at 1 µM (MST1/STK4) was 100%. It also gave an Activity% (PKCmu/PRKD1; 1 μM) of 95.71%, an activity at 1 µM (PKCmu/PRKD1) of 96.5% and an Activity% (TBK1; 1 μM) of 96.55%. For the same molecule, the activity at 1 µM (TBK1) was 97%, the Activity% (TRKB; 1 μM, ATP 10 μM, Data1, Data2) was 41.21% and the activity at 1 µM (TRKB; 1 μM, ATP 10 μM, Data1, Data2) was 41.2%. The inhibition at 1 µM (TRKB; at 1000 nM) was over 50%, the Activity% (IRR/INSRR; 1 μM) was 96.94% and the activity at 1 µM (IRR/INSRR) was 98%. The Activity% (JAK1; 1 μM) was 99.20%, the activity at 1 µM (JAK1) was 99.5% and the Activity% (FLT3; 1 μM) was 57.70%. It also gave an activity at 1 µM (FLT3) of 58%, an Activity% (MUSK; 1 μM) of 70.88% and an activity at 1 µM (MUSK) of 75.9%. The Activity% (EPHB1; 1 μM) was 95.01%, the activity at 1 µM (EPHB1) was 95.5% and the Activity% (CAMK1a; 1 μM) was 98.23%. The activity at 1 µM (CAMK1a) was 98.6%, the Activity% (CDK6/cyclin D3; 1 μM) was 81.98% and the activity at 1 µM (CDK6/cyclin D3) was 82.6%. It also gave an Activity% (PAK2; 1 μM) of 104.24%, an activity at 1 µM (PAK2) of 105% and an Activity% (GSK3a; 1 μM) of 101.33%. It also gave an activity at 1 µM (GSK3a) of 102%, an Activity% (TNK1; 1 μM) of 86.66% and an activity at 1 µM (TNK1) of 87.9%. The Activity% (DDR1; 1 μM) was 80.91%, the activity at 1 µM (DDR1) was 81.7% and the Activity% (ALK1/ACVRL1; 1 μM) was 91.76%. The activity at 1 µM (ALK1/ACVRL1) was 95.2%, the Activity% (JNK2; 1 μM) was 101.11% and the activity at 1 µM (JNK2) was 104%. For the same molecule, the Activity% (MAPKAPK5/PRAK; 1 μM) was 97.02%, the activity at 1 µM (MAPKAPK5/PRAK) was 97% and the Activity% (AKT3; 1 μM) was 98.71%. It also gave an activity at 1 µM (AKT3) of 100%, an Activity% (CSK; 1 μM) of 91.36% and an activity at 1 µM (CSK) of 92.8%. It also gave an Activity% (MLK1/MAP3K9; 1 μM) of 99.64% and an activity at 1 µM (MLK1/MAP3K9) of 99.7%.
